Data taken from patent US20180319810A1, “SUBSTITUTED BRIDGED UREA ANALOGS AS SIRTUIN MODULATORS” (GlaxoSmithKline Intellectual Property (No.2) Limited, priority 2014, published 2018).

Molecular target: T1, SIRT1 (Homo sapiens, UniProt Q96EB6)
T1 sequence (Q96EB6 1-747): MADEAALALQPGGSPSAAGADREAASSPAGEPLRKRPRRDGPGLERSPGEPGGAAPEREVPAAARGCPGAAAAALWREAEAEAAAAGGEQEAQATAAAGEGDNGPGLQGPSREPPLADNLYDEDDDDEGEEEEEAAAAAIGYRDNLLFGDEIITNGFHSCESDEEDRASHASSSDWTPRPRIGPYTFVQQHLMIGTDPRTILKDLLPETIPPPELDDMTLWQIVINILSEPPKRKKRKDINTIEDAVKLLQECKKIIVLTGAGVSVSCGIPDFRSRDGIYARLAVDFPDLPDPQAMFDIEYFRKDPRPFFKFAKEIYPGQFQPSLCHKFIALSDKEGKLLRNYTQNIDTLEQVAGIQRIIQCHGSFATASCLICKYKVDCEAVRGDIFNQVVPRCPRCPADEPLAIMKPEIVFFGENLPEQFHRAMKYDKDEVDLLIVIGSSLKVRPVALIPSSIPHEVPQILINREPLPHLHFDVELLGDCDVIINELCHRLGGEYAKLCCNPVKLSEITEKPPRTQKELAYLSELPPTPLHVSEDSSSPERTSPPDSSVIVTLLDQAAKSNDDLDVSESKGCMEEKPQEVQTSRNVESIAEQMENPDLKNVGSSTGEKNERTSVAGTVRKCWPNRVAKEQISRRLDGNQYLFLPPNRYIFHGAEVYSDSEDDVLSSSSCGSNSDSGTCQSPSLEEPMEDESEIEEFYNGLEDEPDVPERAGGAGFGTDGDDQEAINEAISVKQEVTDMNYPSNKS
Assay: Trp mass spectrometry assay of SIRT1 activation
Type: biochemical
Details: Trp peptide Ac-R-H-K-K(Ac)-W-NH2 0.5 μM, 120 μM βNAD+, 10 nM SIRT1, 25 min, 25° C.
Description: Mass spectrometry based assays were used to identify modulators of SIRT1 activity. […] The peptide was labeled with the fluorophore 5TMR (excitation 540 nm/emission 580 nm) at the C-terminus. The sequence of the peptide substrate was based on p53 with several modifications. In addition, the methionine residue naturally present in the sequence was replaced with the norleucine because the methionine may be susceptible to oxidation during synthesis and purification.
The Trp mass spectrometry assay was conducted as follows. […] The SIRT1 protein was obtained by cloning the SirT1 gene into a T7-promoter containing vector, which was then expressed in BL21(DE3) bacterial cells and purified as described in further detail below. Test compound was added at varying concentrations to this reaction mixture and the resulting reactions were monitored. After the 25 minute incubation with SIRT1, 10 μL of 10% formic acid was added to stop the reaction. The resulting reactions were sealed and frozen for later mass spec analysis. The relative SIRT1 activity was then determined by measuring the amount of O-acetyl-ADP-ribose (OAADPR) formed (or, alternatively, the amount of deacetylated Trp peptide generated) by the NAD-dependent sirtuin deacetylation reaction in the presence of varying concentrations of the test compound versus control reactions lacking the test compound.
The degree to which the test agent activated deacetylation by SIRT1 was expressed as EC1.5 (i.e., the concentration of compound required to increase SIRT1 activity by 50% over the control lacking test compound), and Percent Maximum Activation (i.e., the maximum activity relative to control (100%) obtained for the test compound).
This time point was the same as that used for test compounds and, within the linear range, the endpoint represents a change in velocity.
For the above assay, SIRT1 protein was expressed and purified as follows. The SirT1 gene was cloned into a T7-promoter containing vector and transformed into BL21(DE3). The protein was expressed by induction with 1 mM IPTG as an N-terminal His-tag fusion protein at 18° C. overnight and harvested at 30,000×g. Cells were lysed with lysozyme in lysis buffer (50 mM Tris-HCl, 2 mM Tris[2-carboxyethyl]phosphine (TCEP), 10 μM ZnCl2, 200 mM NaCl) and further treated with sonication for 10 min for complete lysis. The protein was purified over a Ni-NTA column (Amersham) and fractions containing pure protein were pooled, concentrated and run over a sizing column (Sephadex S200 26/60 global). The peak containing soluble protein was collected and run on an Ion-exchange column (MonoQ). Gradient elution (200 mM-500 mM NaCl) yielded pure protein. This protein was concentrated and dialyzed against dialysis buffer (20 mM Tris-HCl, 2 mM TCEP) overnight. The protein was aliquoted and frozen at −80° C. until further use.
“NT” means not tested; “ND” means not determinable.

Row | Compound | TRP Activity (EC1.5, concentration of compound required to increase SIRT1 activity by 50% over control) | TRP MAX RESP (percent maximum fold activation relative to control)
1 | C[C@@H](NC(=O)c1ncc2c(n1)N(C(=O)Nc1nccc(OC[C@@H](O)CO)n1)[C@H]1CCCN2C1)C(F)(F)F [Example 76, (9S)—N10-(4-((S)-2,3-dihydroxypropoxy)pyrimidin-2-yl)-N2-((R)-1,1,1-trifluoropropan-2-yl)-8,9-dihydro-6H-5,9-methanopyrimido[4,5-b][1,4]diazocine-2,10(7H)-dicarboxamide] | B (EC1.5 1-25 μM) | A (Fold activation ≥150%)
2 | Cc1ncc(-c2ccnc(NC(=O)N3c4nc(C(=O)N[C@H](C)C(F)(F)F)nc(C)c4N4CCC[C@H]3C4)c2)o1 [Example 71, (9S)-4-methyl-N10-(4-(2-methyloxazol-5-yl)pyridin-2-yl)-N2-((R)-1,1,1-trifluoropropan-2-yl)-8,9-dihydro-6H-5,9-methanopyrimido[4,5-b][1,4]diazocine-2,10(7H)-dicarboxamide] | A (EC1.5<1 μM) | A (Fold activation ≥150%)
3 | O=C(Nc1ccc(OC[C@H](O)CO)nc1)N1c2nc(-c3cccc(C(F)(F)F)c3)ncc2N2CC[C@H]1C2 [Example 39, (8S)—N-(6-((R)-2,3-dihydroxypropoxy)pyridin-3-yl)-2-(3-(trifluoromethyl)phenyl)-7,8-dihydro-5,8-methanopyrimido[4,5-b][1,4]diazepine-9(6H)-carboxamide] | A (EC1.5<1 μM) | A (Fold activation ≥150%)
4 | O=C(Nc1cncc(OC[C@H](O)CO)c1)N1c2nc(-c3cccc(C(F)(F)F)c3)ncc2N2CC[C@H]1C2 [Example 35, (8S)—N-(5-((R)-2,3-dihydroxypropoxy)pyridin-3-yl)-2-(3-(trifluoromethyl)phenyl)-7,8-dihydro-5,8-methanopyrimido[4,5-b][1,4]diazepine-9(6H)-carboxamide] | B (EC1.5 1-25 μM) | A (Fold activation ≥150%)
5 | O=C(NC1CC1)N1c2nc(-c3cccc(C(F)(F)F)c3)ncc2N2CCC[C@H]1C2 [Example 87, (9S)—N-cyclopropyl-2-(3-(trifluoromethyl)phenyl)-8,9-dihydro-6H-5,9-methanopyrimido[4,5-b][1,4]diazocine-10(7H)-carboxamide] | A (EC1.5<1 μM) | A (Fold activation ≥150%)
6 | Cn1cccc(NC(=O)N2c3nc(C(=O)NCC(F)(F)F)ncc3N3CC[C@H]2C3)c1=O [Example 2, (8S)—N9-(1-methyl-2-oxo-1,2-dihydropyridin-3-yl)-N2-(2,2,2-trifluoroethyl)-7,8-dihydro-5,8-methanopyrimido[4,5-b][1,4]diazepine-2,9(6H)-dicarboxamide] | B (EC1.5 1-25 μM) | A (Fold activation ≥150%)
7 | O=C(NC1CCC1)N1c2nc(-c3cccc(C(F)(F)F)c3)ncc2N2CC[C@H]1C2 [Example 20, (8S)—N-cyclobutyl-2-(3-(trifluoromethyl)phenyl)-7,8-dihydro-5,8-methanopyrimido[4,5-b][1,4]diazepine-9(6H)-carboxamide] | A (EC1.5<1 μM) | A (Fold activation ≥150%)

Results, then the compound that gave them:

Row | TRP Activity (EC1.5, concentration of compound required to increase SIRT1 activity by 50% over control) | TRP MAX RESP (percent maximum fold activation relative to control) | Compound
8 | A (EC1.5<1 μM) | A (Fold activation ≥150%) | O=C(Nc1ccc(OC[C@@H](O)CO)nc1)N1c2nc(-c3cccc(C(F)(F)F)c3)ncc2N2CCC[C@H]1C2 [Example 101, (9S)—N-(6-((S)-2,3-dihydroxypropoxy)pyridin-3-yl)-2-(3-(trifluoromethyl)phenyl)-8,9-dihydro-6H-5,9-methanopyrimido[4,5-b][1,4]diazocine-10(7H)-carboxamide]
9 | A (EC1.5<1 μM) | A (Fold activation ≥150%) | O=C(Nc1cnc(OC[C@H](O)CO)cn1)N1c2nc(-c3cccc(C(F)(F)F)c3)ncc2N2CCC[C@H]1C2 [Example 97, (9S)—N-(5-((R)-2,3-dihydroxypropoxy)pyrazin-2-yl)-2-(3-(trifluoromethyl)phenyl)-8,9-dihydro-6H-5,9-methanopyrimido[4,5-b][1,4]diazocine-10(7H)-carboxamide]
10 | A (EC1.5<1 μM) | A (Fold activation ≥150%) | O=C(Nc1cnc(OC[C@H](O)CO)nc1)N1c2nc(-c3cccc(C(F)(F)F)c3)ncc2N2CCC[C@H]1C2 [Example 104, (9S)—N-(2-((R)-2,3-dihydroxypropoxy)pyrimidin-5-yl)-2-(3-(trifluoromethyl)phenyl)-8,9-dihydro-6H-5,9-methanopyrimido[4,5-b][1,4]diazocine-10(7H)-carboxamide]
11 | A (EC1.5<1 μM) | A (Fold activation ≥150%) | O=C(Nc1cccc(OC[C@H](O)CO)n1)N1c2nc(-c3cccc(C(F)(F)F)c3)ncc2N2CC[C@H]1C2 [Example 22, (8S)—N-(6-((R)-2,3-dihydroxypropoxy)pyridin-2-yl)-2-(3-(trifluoromethyl)phenyl)-7,8-dihydro-5,8-methanopyrimido[4,5-b][1,4]diazepine-9(6H)-carboxamide]
12 | A (EC1.5<1 μM) | A (Fold activation ≥150%) | Cl.O=C(Nc1ccnc(OC[C@H](O)CO)c1)N1c2nc(-c3cccc(C(F)(F)F)c3)ncc2N2CC[C@H]1C2 [Example 34, (8S)—N-(2-((R)-2,3-dihydroxypropoxy)pyridin-4-yl)-2-(3-(trifluoromethyl)phenyl)-7,8-dihydro-5,8-methanopyrimido[4,5-b][1,4]diazepine-9(6H)-carboxamide hydrochloride]
13 | A (EC1.5<1 μM) | A (Fold activation ≥150%) | O=C(Nc1cc(OC[C@@H](O)CO)ncn1)N1c2nc(-c3cccc(C(F)(F)F)c3)ncc2N2CCC[C@H]1C2 [Example 96, (9S)—N-(6-((S)-2,3-dihydroxypropoxy)pyrimidin-4-yl)-2-(3-(trifluoromethyl)phenyl)-8,9-dihydro-6H-5,9-methanopyrimido[4,5-b][1,4]diazocine-10(7H)-carboxamide]
14 | B (EC1.5 1-25 μM) | A (Fold activation ≥150%) | O=C(Nc1nccc(OC[C@@H](O)CO)n1)N1c2nc(-c3cccc(C(F)(F)F)c3)ncc2N2CCC[C@H]1C2 [Example 103, (9S)—N-(4-((S)-2,3-dihydroxypropoxy)pyrimidin-2-yl)-2-(3-(trifluoromethyl)phenyl)-8,9-dihydro-6H-5,9-methanopyrimido[4,5-b][1,4]diazocine-10(7H)-carboxamide]
